Here are results for eight compounds from US20240317748A1, “CARBONYL SUBSTITUTED DIAZASPIRO COMPOUNDS AND ITS USE” (BIONOVA PHARMACEUTICALS (SHANGHAI) LIMITED, priority 2021, published 2024).

For one series, the target named is T1, hERG potassium channel (Homo sapiens, UniProt Q12809).
T1 construct: expressed in transfected cells; host or cells: CHO-hERG cells
In words: hERG inhibition study (Qpatch, CHO-hERG cells). Particulars: highest test concentration 40 μM. In kind it is cell-based. As to the method: The inhibition effects of the test compounds on hERG were carried out in CHO-hERG cells (cell density: 21.5×10˜6/mL). 10 μL compound mother liquor was added to 20 μL DMSO solution, and then continuously diluted to 6 concentrations by 3-fold. The compound solution (4 uL) of six different concentrations were added to the extracellular solution (996 uL) and diluted to the final concentration to be tested (250-fold dilution totally). The highest test concentration was 40.00 μM, followed by […], 13.3, 4.4, 1.48, 0.49 and 0.16 μM. […] The high impedance sealing of single cell and the formation of whole cell model were all completed automatically by Qpatch instrument.

Another series deals with T2, Menin-MLL1 (Homo sapiens, UniProt O00255).
T2 construct: Menin (2-610) isform2; purchased ChemPartner 2020111101
T2 sequence (O00255 2-610): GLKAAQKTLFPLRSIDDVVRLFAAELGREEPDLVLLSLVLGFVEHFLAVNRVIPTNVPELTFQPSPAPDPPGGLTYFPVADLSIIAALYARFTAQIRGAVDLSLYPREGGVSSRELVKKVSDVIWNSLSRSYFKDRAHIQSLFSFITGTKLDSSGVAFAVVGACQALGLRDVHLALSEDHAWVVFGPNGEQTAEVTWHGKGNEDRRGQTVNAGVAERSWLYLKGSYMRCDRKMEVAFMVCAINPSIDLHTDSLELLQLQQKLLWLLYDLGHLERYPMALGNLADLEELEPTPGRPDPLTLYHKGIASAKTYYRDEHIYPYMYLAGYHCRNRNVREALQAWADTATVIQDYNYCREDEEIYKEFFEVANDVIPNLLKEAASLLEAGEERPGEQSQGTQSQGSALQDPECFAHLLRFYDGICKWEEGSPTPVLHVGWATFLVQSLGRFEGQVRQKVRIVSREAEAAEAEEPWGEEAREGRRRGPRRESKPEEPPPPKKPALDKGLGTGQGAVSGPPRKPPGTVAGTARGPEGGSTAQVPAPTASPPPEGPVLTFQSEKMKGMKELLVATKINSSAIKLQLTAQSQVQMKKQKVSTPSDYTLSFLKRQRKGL
Nature of the series: Menin-MLL1 inhibition assay (fluorescence polarization, Menin protein + FAM-MLL peptide). Particulars: Menin (2-610) isoform 2, FAM-labelled MLL peptide, mP readout; read-out: Biochemical assay Menin-MLL1 IC50. In kind it is binding.

The next series relates to HL-60 cells. In words: Cell proliferation assay (CellTiter-Glo), HL-60 control line. In kind it is cell-based, human. Conditions: 4 days incubation; for IC50: HL-60 control line (MLL wildtype), read-out: Cell antiproliferation assay HL-60 IC50; for inhibition at 10 µM: read-out: HL-60 (Pct of inhibition at 10 μM). As to the method:
(§1) The antiproliferative activity of test compounds was assessed in human leukemia cell lines. The cell line MV4-11, MOLM13 and OCI-AML3, which expresses the MLL fusion protein MLL-AF4, MLL-AF9 and carry the NPM1c gene mutation, respectively, were tested. HL-60 was used as a control cell line containing two MLL wildtype alleles in order to exclude compounds that display general cytotoxic effect. MV4-11 cells were cultured in IMDM supplemented with 10% FBS, MOLM13 and OCI-AML3 cells were cultured in RPMI1640 supplemented with 20% FBS, and HL-60 cells were cultured in IMDM supplemented with 20% FBS. Corresponding cells (MV4-11, MOLM13, OCI-AML3 or HL-60 cell line) were seeded in 100 uL medium per well in 96-well plate (white wall with clear bottom, tissue culture treated, Corning, Cat. No. CLS3903; Lot.No. 30419025). Plates were placed in the CO2 incubator overnight. Compounds solution (2 mM starting, 4-fold serial dilution) were prepared and added to the wells containing 100 μL of the culture medium with HPD300 according to the plate map and centrifuge at 1000 rpm for 1 minutes (200-fold dilution totally). MV4-11, MOLM13, OCI-AML3 and HL-60 cells were incubated with the compounds for 4, 12, 5 and 4 days, respectively, under 5% CO2 at 37° C., respectively. 100 μL of CellTiter-Glo reagent (Promega, Cat. No. G7573, Lot. No. 0000416710) was added to the assay plate by Multidrop Combi instrument, contents were mixed for 10 minutes on an orbital shaker to induce cell lysis. After incubation at room temperature for 10 mins, clear bottom with white back seal was pasted and luminescence with Envision was read.
For orientation: ATP-based viability assays read luminescence as a measure of living cells.

The nature of series [1]: Liver microsome stability study. In kind it is in vitro ADME. Conditions: human liver microsomes 0.5 mg/mL, 1 μM compound, NADPH, 37° C.; for half-life at 1 μM: read-out: Human liver microsome T1/2. As to the method: Studies were carried out in liver microsomes (Corning, 0.5 mg/mL). Stock solutions were prepared at 10 mM in DMSO for the test compounds. Aliquots of the stock solutions were diluted to 0.5 mM with acetonitrile, and then further diluted upon the addition of liver microsomes/buffer to 1.5 μM. An aliquot of 30 μL of 1.5 μM solutions was mixed with 15 μL of 6 mM NADPH and the final concentration of NADPH was 2 mM, which had been pre-warmed to 37° C. Test compounds and Ketanserin final concentrations were 1 μM. The plates were kept in a 37° C. water bath for the duration of the experiment. At each time point (0, 5, 15, 30, 45 minutes), 135 μL of acetonitrile was added into corresponding wells. After the final time point was quenched by acetonitrile, the assay plates were shaken at the vibrator (IKA, MTS 2/4) for 10 min (600 rpm/min) and then centrifuged at 5,594 g for 15 min (Thermo Multifuge×3R). Aliquots of the supernatant were taken, diluted 1:1 into distilled water, and analyzed by LC-MS/MS. The peak area response ratio to internal standard (PARR) of the compounds at 5, 15, 30, 45 minutes was compared to the PARR at time 0 to determine the percent of test compound remaining at each time point. Half-lives were calculated using Excel software, fitting to a single-phase exponential decay equation.
(Microsomes from liver hold many membrane-bound enzymes, among them those of drug oxidation.)

A further series deals with MV-4-11 cells. In words: Cell proliferation assay (CellTiter-Glo), MV-4-11. In kind it is cell-based, human. Particulars: MV-4-11 (MLL-AF4), 4 days incubation, read-out: Cell antiproliferation assay MV-4-11 IC50. The essentials:
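Antiproliferative activity by CellTiter-Glo luminescence; MV4-11 (MLL-AF4) in IMDM/10% FBS, 4 days; MOLM13 (MLL-AF9) in RPMI1640/20% FBS, 12 days; OCI-AML3 (NPM1c) in RPMI1640/20% FBS, 5 days; HL-60 (MLL wild-type control) in IMDM/20% FBS, 4 days. Compounds 4-fold serial from 2 mM stock, 200-fold final dilution; 37 °C, 5% CO2.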

The subject of another series is OCI-AML3 cells. Nature of the series: Cell proliferation assay (CellTiter-Glo), OCI-AML3. In kind it is cell-based, human. Particulars: OCI-AML3 (NPM1c mutation), 5 days incubation, read-out: Cell antiproliferation assay OCI-AML3 IC50. As to the method: as §1
Another series deals with MOLM13 cells. In words: Cell proliferation assay (CellTiter-Glo), MOLM13. In kind it is cell-based, human. Particulars: MOLM13 (MLL-AF9), 12 days incubation, read-out: Cell antiproliferation assay MOLM13 IC50. Here is the method:
as §1

Where [2] appears, read: Homo sapiens, 96 h, HL-60 control line, 10 μM.

SMILES strings stand for the structures. Like-named read-outs stand apart in the source and are kept apart here.

T1 sequence (Q12809 whole entry): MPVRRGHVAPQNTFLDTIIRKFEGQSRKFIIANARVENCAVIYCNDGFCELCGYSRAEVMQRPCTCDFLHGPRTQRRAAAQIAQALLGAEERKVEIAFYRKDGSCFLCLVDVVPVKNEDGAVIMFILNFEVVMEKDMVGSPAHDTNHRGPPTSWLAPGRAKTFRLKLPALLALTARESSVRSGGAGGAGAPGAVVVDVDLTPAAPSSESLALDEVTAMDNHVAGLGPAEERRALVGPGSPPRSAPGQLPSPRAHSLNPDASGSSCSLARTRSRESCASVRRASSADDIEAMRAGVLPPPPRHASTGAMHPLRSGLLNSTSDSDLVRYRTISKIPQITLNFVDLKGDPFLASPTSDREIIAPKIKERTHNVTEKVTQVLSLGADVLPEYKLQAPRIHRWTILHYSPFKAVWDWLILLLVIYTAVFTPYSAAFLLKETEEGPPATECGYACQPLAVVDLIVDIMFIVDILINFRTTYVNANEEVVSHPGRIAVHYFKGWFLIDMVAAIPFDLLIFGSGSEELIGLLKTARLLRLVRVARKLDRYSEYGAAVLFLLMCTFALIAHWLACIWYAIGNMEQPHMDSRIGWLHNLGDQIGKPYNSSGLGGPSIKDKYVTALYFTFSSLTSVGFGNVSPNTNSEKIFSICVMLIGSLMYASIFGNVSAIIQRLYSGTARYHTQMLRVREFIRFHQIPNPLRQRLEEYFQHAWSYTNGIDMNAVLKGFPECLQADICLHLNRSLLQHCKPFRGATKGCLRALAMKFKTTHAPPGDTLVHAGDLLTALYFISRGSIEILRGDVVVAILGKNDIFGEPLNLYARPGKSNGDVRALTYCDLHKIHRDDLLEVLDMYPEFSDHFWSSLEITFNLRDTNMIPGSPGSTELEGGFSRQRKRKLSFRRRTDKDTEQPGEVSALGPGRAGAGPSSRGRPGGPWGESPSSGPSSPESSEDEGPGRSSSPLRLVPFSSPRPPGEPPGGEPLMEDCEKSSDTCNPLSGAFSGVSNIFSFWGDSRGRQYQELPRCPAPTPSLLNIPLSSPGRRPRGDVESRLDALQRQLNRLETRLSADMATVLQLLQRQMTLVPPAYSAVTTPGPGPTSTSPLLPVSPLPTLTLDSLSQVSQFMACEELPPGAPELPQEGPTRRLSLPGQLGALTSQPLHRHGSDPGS

One may read the inhibition as the drop in the measured response relative to a control, in per cent. On to `C[C@H]1CCN[C@@H]1C(=O)N1CCC2(CC1)CN(c1ncnnc1Oc1ccc(F)cc1-c1cncnc1C1CC1)C2` [Example 77], for which the IC50 against hERG potassium channel was over 40 µM; at Menin-MLL1, 3.4 nM; in the series with HL-60 cells (Homo sapiens, 96 h), over 10 µM; in the series on MV-4-11 cells (Homo sapiens, MV4-11, 96 h) it was 17.3 nM. Besides, the inhibition at 10 µM in the series on HL-60 cells (setting [2]) was 17.5%. Besides, the half-life at 1 μM in series [1] was 81 min.
Consider `CCN(C(=O)c1cc(F)ccc1Oc1nncnc1N1CC2(CCN(C(=O)[C@H]3NC[C@@H]4C[C@@H]43)CC2)C1)C(C)C` [Example 55], for which the IC50 with OCI-AML3 cells (Homo sapiens, OCI-AML-3, 120 h) was 186 nM; against hERG potassium channel, over 40 µM; at Menin-MLL1 it was 2.3 nM; with MOLM13 cells (Homo sapiens, MOLM-13, 288 h) it was 61.9 nM; in the series on HL-60 cells (Homo sapiens, 96 h), over 10 µM; in the series with MV-4-11 cells (Homo sapiens, MV4-11, 96 h), 14.2 nM. The inhibition at 10 µM with HL-60 cells (setting [2]) was -5%. Moreover, in series [1], the half-life at 1 μM was determined as 159 min.
Turning to `CCN(C(=O)c1cc(F)ccc1Oc1cncnc1N1CC2(CCN(C(=O)[C@@H]3C[C@@H](F)CN3)CC2)C1)C(C)C` [Example 2, N-ethyl-5-fluoro-2-[(4-{7-[(2S,4R)-4-fluoropyrrolidine-2-carbonyl]-2,7-diazaspiro[3.5]nonan-2-yl}pyrimidin-5-yl)oxy]-N-(propan-2-yl)benzamide], the IC50 was 102 nM in the series with OCI-AML3 cells (Homo sapiens, OCI-AML-3, 120 h); over 40 µM against hERG potassium channel; 4.3 nM at Menin-MLL1; 62.4 nM in the series on MOLM13 cells (Homo sapiens, MOLM-13, 288 h); over 10 µM in the series with HL-60 cells (Homo sapiens, 96 h); 20.3 nM in the series with MV-4-11 cells (Homo sapiens, MV4-11, 96 h). The inhibition at 10 µM in the series on HL-60 cells (setting [2]) was -30.1%.
On to `O=C([C@H]1NC[C@@H]2CCC[C@@H]21)N1CCC2(CC1)CN(c1ncnnc1Oc1ccc(F)cc1-c1cncnc1C1CC1)C2` [Example 82], for which the IC50 in the series with OCI-AML3 cells (Homo sapiens, OCI-AML-3, 120 h) is 11.2 nM; at hERG potassium channel, 29.4 µM; at Menin-MLL1, 4.2 nM; in the series on MOLM13 cells (Homo sapiens, MOLM-13, 288 h) it was 12.3 nM; in the series with HL-60 cells (Homo sapiens, 96 h), over 10 µM; with MV-4-11 cells (Homo sapiens, MV4-11, 96 h), 5.6 nM. Further, the inhibition at 10 µM with HL-60 cells (setting [2]) was found to be 22.3%.
With `CCN(C(=O)c1cc(F)ccc1Oc1nncnc1N1CC2(CCN(C(=O)[C@@H]3C[C@@H](C)CN3)CC2)C1)C(C)C` [Example 60], the IC50 against hERG potassium channel is over 40 µM; at Menin-MLL1, 4.5 nM; in the series on HL-60 cells (Homo sapiens, 96 h), over 10 µM; in the series with MV-4-11 cells (Homo sapiens, MV4-11, 96 h), 40.1 nM. In addition, in the series on HL-60 cells (setting [2]), the inhibition at 10 µM is -8.4%. Further, the half-life at 1 μM in series [1] came to 119 min.
On to `CCN(C(=O)c1cc(F)ccc1Oc1nncnc1N1CC2(CCN(C(=O)[C@H]3NCC[C@@H]3C)CC2)C1)C(C)C` [Example 57], for which the IC50 is 144 nM in the series on OCI-AML3 cells (Homo sapiens, OCI-AML-3, 120 h); over 40 µM against hERG potassium channel; 5.3 nM on Menin-MLL1; 57.8 nM with MOLM13 cells (Homo sapiens, MOLM-13, 288 h); over 10 µM with HL-60 cells (Homo sapiens, 96 h); 13 nM in the series on MV-4-11 cells (Homo sapiens, MV4-11, 96 h). For the same compound, the inhibition at 10 µM in the series on HL-60 cells (setting [2]) is -16.4%. Also, the half-life at 1 μM in series [1] turned out to be 105 min.
Turning to `CCN(C(=O)c1cc(F)ccc1Oc1nncnc1N1CC2(CCN(C(=O)[C@H]3NC[C@H]4[C@@H]3C4(C)C)CC2)C1)C(C)C` (stereo in doubt) [Example 68], the IC50 was 68.3 nM in the series with OCI-AML3 cells (Homo sapiens, OCI-AML-3, 120 h); over 40 µM at hERG potassium channel; 4.1 nM at Menin-MLL1; 46.1 nM in the series on MOLM13 cells (Homo sapiens, MOLM-13, 288 h); over 10 µM in the series with HL-60 cells (Homo sapiens, 96 h); 13.8 nM in the series on MV-4-11 cells (Homo sapiens, MV4-11, 96 h). For the same compound, in the series with HL-60 cells (setting [2]), the inhibition at 10 µM amounted to 14.1%.
Turning to `CCN(C(=O)c1cc(F)ccc1Oc1cncnc1N1CC2(CCN(C[C@H]3CC[C@H](NS(=O)(=O)CC)CC3)CC2)C1)C(C)C` [SNDX-5613, reference compound], the IC50 with OCI-AML3 cells is 74.7 nM; against hERG potassium channel, 9.6 µM; at Menin-MLL1, 3.4 nM; with MOLM13 cells it was 21.6 nM; with HL-60 cells, 7.97 µM; in the series with MV-4-11 cells it was 8 nM. In the series on HL-60 cells (HL-60 control line, 10 μM), the “HL-60 (Pct of inhibition at 10 μM)” value is 98.9%. The “Human liver microsome T1/2” value in series [1] amounted to 12 min.
